Measurements taken from patent US20050100888A1, “Methods based on hormone dependency of primary cancer cells” (Imperial College Innovations Limited, priority 2002, published 2005).

Legend:
estrogen receptor (ER) [1] = molecular target: T1, estrogen receptor (ER) (Homo sapiens, UniProt P03372); conditions: ER positive cell lines (MCF-7, T47-D, ZR75-1, BT474), virus 100:1, ligands 10^−7M
T1 sequence (P03372 1-595): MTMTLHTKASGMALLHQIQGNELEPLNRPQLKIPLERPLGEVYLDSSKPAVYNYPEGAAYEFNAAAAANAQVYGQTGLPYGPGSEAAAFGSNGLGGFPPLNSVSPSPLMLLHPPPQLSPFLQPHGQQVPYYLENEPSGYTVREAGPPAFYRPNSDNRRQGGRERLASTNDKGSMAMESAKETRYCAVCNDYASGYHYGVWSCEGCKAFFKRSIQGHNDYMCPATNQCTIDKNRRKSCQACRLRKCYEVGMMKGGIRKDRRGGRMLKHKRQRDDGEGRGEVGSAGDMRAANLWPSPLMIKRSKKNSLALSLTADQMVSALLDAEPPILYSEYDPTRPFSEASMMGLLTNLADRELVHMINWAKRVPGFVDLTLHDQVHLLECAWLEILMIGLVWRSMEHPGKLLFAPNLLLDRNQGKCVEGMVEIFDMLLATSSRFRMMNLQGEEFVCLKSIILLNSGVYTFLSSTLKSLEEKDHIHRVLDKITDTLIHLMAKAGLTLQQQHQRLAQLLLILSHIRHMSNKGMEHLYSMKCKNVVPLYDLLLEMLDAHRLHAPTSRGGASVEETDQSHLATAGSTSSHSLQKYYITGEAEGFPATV
Protocol: (§1) Reporter Gene Assay 48 hours after virus infection, 20 ul of 20% Triton in PBS was added to each well and incubated at RT for 10 minutes. […] (CRPG) made up in TBS at a concentration of 8 mg/ml was then added to the wells and the plate was incubated, foil-wrapped, at 37° C. until a colour change was observed. Plate readings were taken at a wavelength of 547 nm.

estrogen receptor (ER) [2] = assay: adenoERreporter assay in fine needle aspirates (FNA) from recurrent breast cancer; format: cell-based, human
Protocol: Cells obtained from FNAs were collected in PBS (Sigma, Poole, UK) containing 2% FCS. If the aspirate was bloody, erythrocyte lysis buffer (0.155M NH4Cl, 10 mM KHCO3, 0.1 mM EDTA, pH 7.4) was used to lyse the red blood cells and after a further wash with PBS, the cells were re-suspended in culture media for counting and immediate infections.
For infections of primary cells, 6-10,000 cells/well were allowed and exposed to the given quantity of virus, after which they were pelleted and re-supended in 200 ul of PR free/5% DSS medium containing the appropriate ligands prior to plating into 96-well plates.
as §1
We purified breast cancer cells from metastatic fluid, both pleural and ascites as well as fine needle aspirates (FNA) from recurrent breast cancer. These cells were counted and infected with adenoERreporter and after 48 hours a β-gal assay was performed. We have infected 9 metastatic effusions including 2 cell lines of passage number two, derived from pleural effusions and 4 FNAs. Tables 3 and 4 show the treatment history and characteristics of the patients that provided the samples. Where possible, some of the fluid was sent for cytology and ER staining. However, this was not always feasible due to the variability of cancer cells in the metastatic fluid.

estrogen receptor (ER) [3] = molecular target: T1, estrogen receptor (ER); conditions: infected MCF7 cells

## C[C@]12CC[C@@H]3c4ccc(O)cc4C[C@@H](CCCCCCCCC[S+]([O-])CCCC(F)(F)C(F)(F)F)[C@H]3[C@@H]1CC[C@@H]2O (stereo partly shown) [ICI 182,780]
Estrogen receptor (ER) [1]
  reporter activity above baseline: blocked even the baseline activity
Estrogen receptor (ER) [2]; FNA summary table, N = 1, IHC ER−/PR−, ?Responder
  Reporter Assay: inhibition: OHT/ICI inhibit by × 1.8
Estrogen receptor (ER) [2]; Table 4 patient 8) T2GN0M0, primary ER++/PR−, FNA ER−/PR−, prior Arimidex 1y
  Reporter Activity: x1.0
Estrogen receptor (ER) [3]
  β-gal expression by X-gal staining: completely abolished even basal levels of staining
